Test results reported in paper PMC4060991, “The Human Orphan Nuclear Receptor Tailless (TLX, NR2E1) Is Druggable” (PLoS ONE, 2014).
Read-outs that look alike come from different tables or passages of the source.

Legend:
TLX LBD [1] = target: T1, TLX LBD (Homo sapiens, UniProt Q9Y466); test: Biolayer interferometry (Octet Red 384) direct binding to immobilized TLX LBD; set-up: cDNA fragments encoding human TLX LBD (a.a. 187–385) were cloned; His6 followed by TEV protease cleavage site (N); made in house; host or cells: E. coli BL21 (DE3) star; details: for association/dissociation behaviour (sensorgram): dose-response curves; for maximum binding response (plateau): highest concentrations tested, expected maximum 0.08–0.1 nm for 1:1
T1 sequence (Q9Y466 187-385): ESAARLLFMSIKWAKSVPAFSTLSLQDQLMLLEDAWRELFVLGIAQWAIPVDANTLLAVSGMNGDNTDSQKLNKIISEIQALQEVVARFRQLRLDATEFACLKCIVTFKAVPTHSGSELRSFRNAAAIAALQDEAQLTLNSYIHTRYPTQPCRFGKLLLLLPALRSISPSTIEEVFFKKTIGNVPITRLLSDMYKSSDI
Protocol: Cloning was accomplished with a standard double digest cloning protocol after PCR according to manufacturer’s protocol (Avidity), and the plasmid was sequenced (ACGT, Inc). […] A duplicate set of sensors which serve as reference surfaces were incubated in […] solution of blocked biotinylated Streptavidin protein (Scripps Laboratories) to a loading signal of about 5.5 nm as described by manufacturer’s protocol (FortéBio). Binding of the individual compounds (100 µM) or 1% DMSO (solvent control) was measured over immobilized TLX LBD target biosensors and reference surfaces. Corrected binding response sensorgrams were recorded and analyzed. Data analysis on the FortéBio Octet RED instrument was performed using the FortéBio data analysis software. The analysis accounts for non-specific binding, background, and signal drift and minimizes well based and sensor variability.
The corresponding equilibrium dissociation constants (KD) were determined using steady state analysis of compounds binding affinities, assuming 1∶1 ligand - protein stoichiometry.

human RXRα LBD = target: T2, human RXRα LBD (Homo sapiens, UniProt P19793); test: GAL4 DBD-RXRα LBD luciferase transactivation assay in HeLa cells; type: cell-based; details: 10 µM, 24 h, alone or in competition with 9-cis retinoic acid 100 nM
T2 construct: expressed in transfected cells; host or cells: HeLa
T2 sequence (P19793 225-462): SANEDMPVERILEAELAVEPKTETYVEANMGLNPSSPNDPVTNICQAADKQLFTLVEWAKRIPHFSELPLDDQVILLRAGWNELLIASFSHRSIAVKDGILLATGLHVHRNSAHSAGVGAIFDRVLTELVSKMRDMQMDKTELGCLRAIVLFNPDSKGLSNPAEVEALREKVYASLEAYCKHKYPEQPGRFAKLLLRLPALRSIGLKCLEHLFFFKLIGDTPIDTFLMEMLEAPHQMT
Protocol: We cloned human RXRα LBD (residues 225–462) in the vector pBIND as described above. Transient co-transfections of HeLa cells with vectors encoding either Gal4DBD or Gal4 DBD-RXRα LBD fusion (both at 10 ng/well), pGL4.35 reporter gene (200 ng/well) and renilla luciferase gene (10 ng/well, internal control) were performed in batches of 10^5 cells seeded into 12-well tissue culture plates. The transfections were done using TransFectin Lipid Reagent (Biorad). Three hours after the transfections, cells were treated with either DMSO (0.1%, control) or compounds ccrp1, ccrp2 or ccrp3 at 10 µM, in the absence or the presence of 9-cis retinoic acid (RA, 100 nM). Following 24 h incubation, luciferase activities in each well were assessed as described above. Cells transfected with Gal4 DBD vector served as a control for RXR independent effects.

TLX LBD [2] = target: T1, TLX LBD; test: Differential scanning fluorimetry (DSF) on purified TLX LBD;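 note: thermal unfolding followed by Sypro-Orange fluorescence (excitation 465 nm, emission 610 nm) in 384-well plates, Tm taken from the first derivative of the denaturation curve, duplicate samples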; type: binding; set-up: cDNA fragments encoding human TLX LBD (a.a. 187–385) were cloned; His6 followed by TEV protease cleavage site (N); made in house; host or cells: E. coli BL21 (DE3) star; details: compound 500 µM; reference Tm 58.8±0.3°C with 5% DMSO
Protocol: Protein stability was assessed with DSF in absence or presence of test compounds in a LightCycler 480 II qRT-PCR Detection System (Roche) in 384-well format. Sypro-Orange dye (Life Technologies) was used to monitor fluorescence, with filters for fluorescence excitation at 465 nm and for fluorescence emission at 610 nm. […] Each compound was tested in duplicates. The melting temperature (Tm) for each sample was deduced by the ThermoQ Analytical software (HMRI) from the first derivative of the corresponding denaturation curve generated by the LightCycler 480 software. […] All DSF-based analyses were performed using freshly purified protein.

TLX LBD [3] = target: T1, TLX LBD; test: GAL4-TLX LBD luciferase transactivation assay in HeLa cells; type: cell-based; set-up: expressed in transfected cells; host or cells: HeLa
Protocol: The luciferase reporter pGL4.35 [luc2P/9XGAL4UAS/Hygro] vector was obtained from Promega. pBIND-TLX LBD was fully sequenced (ACGT, Inc.).
HeLa cells were maintained in D-MEM High Glucose (Hyclone) supplemented with 10% charcoal:dextran stripped FBS (Hyclone) and 1x Pen/Strep antibiotics (Life Technologies). Transient transfections were carried out in batches on 100,000 cells seeded into 12-well tissue culture plates. The co-transfections were performed using the TransFectin Lipid reagent (Bio-Rad) with approximately 10 ng/well of Gal4 DBD (gift from Phuong Nguyen, Fletterick Laboratory, UCSF) or GAL4-TLX LBD, 10 ng/well of renilla luciferase gene (Promega) for internal control and 200 ng/well of pGL4.35 reporter gene (containing an upstream Gal4 Upstream Activator Sequence and the luciferase gene, Promega). Approximately, 3 h after transfections, cells were treated with compounds of interest at different concentrations, or solvent (DMSO, 0.1%) in DMEM containing no fetal bovine serum or antibiotics. After a 16-h incubation, luciferase activities were assessed using Dual Luciferase assay reagent (Promega). Luciferase activities were calculated by normalizing firefly luciferase to renilla luciferase signal. […] Cells transfected with Gal4 DBD vector served as a control for TLX independent effects.
All measurements were performed in triplicates and repeated in three independent experiments. Prism 6 was used to calculate EC50.

ERβ LBD = ERβ LBD (Homo sapiens, UniProt Q92731); test: DSF on purified ERβ LBD; details: compound 500 µM; unliganded Tm ∼51°C
ERβ LBD, sequence (Q92731 261-530): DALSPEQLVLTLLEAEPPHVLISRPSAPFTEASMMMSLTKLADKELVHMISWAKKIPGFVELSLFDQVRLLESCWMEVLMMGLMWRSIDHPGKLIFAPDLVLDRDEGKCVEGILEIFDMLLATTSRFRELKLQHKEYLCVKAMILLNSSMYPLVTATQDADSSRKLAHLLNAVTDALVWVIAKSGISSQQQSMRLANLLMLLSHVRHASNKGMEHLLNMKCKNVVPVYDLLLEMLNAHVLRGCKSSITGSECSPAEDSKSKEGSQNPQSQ
Protocol: Protein stability was assessed with DSF in absence or presence of test compounds in a LightCycler 480 II qRT-PCR Detection System (Roche) in 384-well format. Sypro-Orange dye (Life Technologies) was used to monitor fluorescence, with filters for fluorescence excitation at 465 nm and for fluorescence emission at 610 nm. […] Tested sample mixtures were heated from 25°C to 96°C at a rate of 0.05°C/sec with 11 acquisitions per °C. Each compound was tested in duplicates. The melting temperature (Tm) for each sample was deduced by the ThermoQ Analytical software (HMRI) from the first derivative of the corresponding denaturation curve generated by the LightCycler 480 software. The same protocol was applied to investigate the stability of purified ERβ and LXRβ LBDs in presence or absence of the compounds. The optimal final concentrations for these experiments were 0.02 mg/mL for ERβ LBD and 0.20 mg/mL for LXRβ LBD. All DSF-based analyses were performed using freshly purified protein.

HeLa cells = test: Toxicity observed in transfection experiments; type: cell-based, human; details: tested at different concentrations
Protocol: HeLa cells were maintained in D-MEM High Glucose (Hyclone) supplemented with 10% charcoal:dextran stripped FBS (Hyclone) and 1x Pen/Strep antibiotics (Life Technologies). Transient transfections were carried out in batches on 100,000 cells seeded into 12-well tissue culture plates. The co-transfections were performed using the TransFectin Lipid reagent (Bio-Rad) with approximately 10 ng/well of Gal4 DBD (gift from Phuong Nguyen, Fletterick Laboratory, UCSF) or GAL4-TLX LBD, 10 ng/well of renilla luciferase gene (Promega) for internal control and 200 ng/well of pGL4.35 reporter gene (containing an upstream Gal4 Upstream Activator Sequence and the luciferase gene, Promega). Approximately, 3 h after transfections, cells were treated with compounds of interest at different concentrations, or solvent (DMSO, 0.1%) in DMEM containing no fetal bovine serum or antibiotics. After a 16-h incubation, luciferase activities were assessed using Dual Luciferase assay reagent (Promega). Luciferase activities were calculated by normalizing firefly luciferase to renilla luciferase signal. Normalized luciferase activities were then represented relative to control (DMSO-treated cells). Cells transfected with Gal4 DBD vector served as a control for TLX independent effects.

[4] = HeLa cells, 16 h treatment, read-out: EC50 for enhancement of TLX transcriptional repression

Row | Compound | association/dissociation behaviour (sensorgram) (TLX LBD [1]) | maximum binding response (plateau) (TLX LBD [1]) | effect on RXRα luciferase activity (human RXRα LBD) | melting temperature (Tm) of TLX LBD in presence of compound (TLX LBD [2]) [°C] | EC50 (TLX LBD [3]) [nM] | melting temperature shift of ERβ LBD (ERβ LBD) | toxicity (HeLa cells) | EC50 (TLX LBD [3]; [4]) [nM]
1 | Cc1cc(C(=O)N2CCN(C(c3ccccc3)c3ccccc3)CC2)nn1C [ccrp2, 1-(1,5-dimethylpyrazole-3-carbonyl)-4-(diphenylmethyl)piperazine] | quick association and dissociation | 0.06–0.1 nm | No effect on luciferase activity was detected | 52.49±1.1 | 1000 ± 300 | Neither compound demonstrates any significant effect on the melting temperatures | None of the three compounds displayed toxicity | 
2 | CC(C)c1c(CN(C)C(C)Cc2ccccc2)n(C)n(-c2ccccc2)c1=O (stereo not drawn) [ccrp1, Famprofazone] | quick association and dissociation | 0.04 nm | No effect on luciferase activity was detected | 53.04±0.3 |  | Neither compound demonstrates any significant effect on the melting temperatures | None of the three compounds displayed toxicity | 9200 ± 1000
3 | CC(=O)[C@H]1CC[C@H]2[C@@H]3C=CC4=CC(=O)CC[C@@]4(C)[C@@H]3CC[C@]12C [ccrp3, Dydrogesterone] | quick association and dissociation | 0.06–0.1 nm | No effect on luciferase activity was detected | 55.78±0.3 |  | Neither compound demonstrates any significant effect on the melting temperatures | None of the three compounds displayed toxicity | 250 ± 100
